According to patent publication US5556744A, “Methods and compositions for diagnosing and treating certain HIV infected patients” (The Trustees of the University of Pennsylvania, priority 1994, dated 1996):

Key:
Parameters in all cases: species or system human
[1] = test system: maternal sera (antibodies); assay: ELISA peptide-binding of maternal sera (Example 6); conditions: for Number of Non-Transmitters which bound to peptide / Percent of Non-Transmitters which bound to peptide: N = 12; for Number of Transmitters which bound to peptide / Percent of Transmitters which bound to peptide: N = 4
Summary of the method: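 HIV-1 envelope peptides averaging 16 amino acids, covering external and transmembrane glycoprotein, were probed by ELISA. Third-trimester maternal sera, classed as transmitter or non-transmitter by child diagnosis, were each run on at least 40 peptides. Values give percent of sera binding a peptide.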

[2] = test system: maternal serum samples (antibodies); assay: ELISA peptide-binding of maternal sera, expanded peptide collection (Example 5); conditions: for Binding / reactivity of maternal sera to peptide (in words): Example 5
Description: The gp120 and gp41 peptides used in this experiment include peptides 60 [SEQ ID NO:9], 93 [SEQ ID NO:10], 94 [SEQ ID NO:1], 95 [SEQ ID NO:11], 96 [SEQ ID NO:12], 97 [SEQ ID NO:13], 59 [SEQ ID NO:14], 106 [SEQ ID NO:15], 107 [SEQ ID NO:[…]], 1029/33 [SEQ ID NO:2], p18p [SEQ ID NO:17], B138 [SEQ ID NO:3], 466 [SEQ ID NO:4], 497 [SEQ ID NO:18], 117 [SEQ ID NO:19], F560 [SEQ ID NO:20], 35 [SEQ ID NO:5], 120 [SEQ ID NO:21], 121 [SEQ ID NO:22], 123 [SEQ ID NO:23], 36 [SEQ ID NO:24], 40 [SEQ ID NO:25], 41 [SEQ ID NO:26], 649 [SEQ ID NO:6], 53 [SEQ ID NO:7], 55 [SEQ ID NO:27], 128 [SEQ ID NO:28], 129 [SEQ ID NO:29], 132 [SEQ ID NO:30], 57 [SEQ ID NO:8], and 1103/55 [SEQ ID NO:31] from Table 2. These peptides were synthesized based on the same HIV IIIB isolate as were the peptides of Table 2. Alternative designations for these peptides are provided in brackets.
Each of the peptides was at least 85% pure, making them suitable for ELISA analyses. The average length of these peptides was 18 amino acid residues, which allows for a certain degree of local flexibility and conformational folding, thus facilitating detection of antibody species with reactivities to shaped structures.
The maternal serum samples were obtained from the Mothers/Infants Cohort Study described in Example 1. For the ELISA peptide-binding analyses performed essentially as described in Example 3, maternal serum samples were diluted to 1:50 or 1:500 with blocking buffer (1% bovine serum albumin in phosphate-buffered saline containing 0.05% Tween 20). Binding was measured using 10 μg/mL peptide per well and was considered positive if the experimental/control OD450nm ratio was ≥2. Normal (HIV seronegative) human sera were used as controls.

[3] = test system: maternal HIV+ sera (antibodies); assay: RIA / ELISA binding of maternal HIV+ sera to gp120 and gp41 peptides (Example 3); conditions: for Correlation of peptide recognition with lack of vertical transmission: in words
Summary of the method: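 Maternal sera, diluted 1:50 and 1:500, were bound overnight at 4°C to peptides immobilized at 10 μg/ml (pH 9.6 carbonate) and blocked with 1% BSA. Read-out was ¹²⁵I-labelled anti-human IgG counts or HRP-TMB OD450. Signal with peptide minus without was expressed relative to seronegative serum.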

[4] = Serum No. 1, Non-Transmission Group
[5] = Serum No. 2, Non-Transmission Group
[6] = Serum No. 3, Non-Transmission Group
[7] = Serum No. 4, Transmission Group
[8] = Serum No. 5, Transmission Group
[9] = Serum No. 6, Non-Transmission Group
[10] = Serum No. 7, Non-Transmission Group
[11] = Serum No. 8, Non-Transmission Group
[12] = Serum No. 9, Non-Transmission Group
[13] = Serum No. 10, Transmission Group
[14] = Serum No. 11, Non-Transmission Group
[15] = Serum No. 12, Non-Transmission Group
[16] = Serum No. 13, Transmission Group
[17] = Serum No. 14, Transmission Group
[18] = Serum No. 15, Transmission Group
[19] = Serum No. 16, Non-Transmission Group
[20] = Serum No. 17, Non-Transmission Group
[21] = Serum No. 18, Non-Transmission Group
[22] = Serum No. 19, Transmission Group
[23] = Serum No. 20, Non-Transmission Group

Substance	Number of Non-Transmitters which bound to peptide [1]	Percent of Non-Transmitters which bound to peptide [1]	Number of Transmitters which bound to peptide [1]	Percent of Transmitters which bound to peptide [1]	Binding / reactivity of maternal sera to peptide (in words) [2]	Binding of maternal HIV+ serum to peptide (sera/NHS ratio) [3, 4]	Binding of maternal HIV+ serum to peptide (sera/NHS ratio) [3, 5]	Binding of maternal HIV+ serum to peptide (sera/NHS ratio) [3, 6]	Binding of maternal HIV+ serum to peptide (sera/NHS ratio) [3, 7]	Binding of maternal HIV+ serum to peptide (sera/NHS ratio) [3, 8]	Binding of maternal HIV+ serum to peptide (sera/NHS ratio) [3, 9]	Binding of maternal HIV+ serum to peptide (sera/NHS ratio) [3, 10]	Binding of maternal HIV+ serum to peptide (sera/NHS ratio) [3, 11]	Binding of maternal HIV+ serum to peptide (sera/NHS ratio) [3, 12]	Binding of maternal HIV+ serum to peptide (sera/NHS ratio) [3, 13]	Binding of maternal HIV+ serum to peptide (sera/NHS ratio) [3, 14]	Binding of maternal HIV+ serum to peptide (sera/NHS ratio) [3, 15]	Binding of maternal HIV+ serum to peptide (sera/NHS ratio) [3, 16]	Binding of maternal HIV+ serum to peptide (sera/NHS ratio) [3, 17]	Binding of maternal HIV+ serum to peptide (sera/NHS ratio) [3, 18]	also measured
58: gp41 peptide, amino acids 794-817, HIV strain IIIB, SEQ ID NO: 173 (KYWWNLLQYWSQELKNSAVSLLNA) [Peptide 58]	3	25%	0	0%	recognized by the transmission group	–	–	–	–	–	–	–	–	–	–	–	–	–	–	–	–
CQNQQEKNEQELLEL [Peptide 649]	7	43.8%	2	50%	recognized by the transmission group	++ (which value is greater than 3)	+ (which value is between 2 to 3)	+ (which value is between 2 to 3)	+ (which value is between 2 to 3)	- (specific OD450 or cpm of sera sample binding to peptide divided by the specific OD450 or cpm of NHS sample binding to peptide, which value is less than 2)	++ (which value is greater than 3)	++ (which value is greater than 3)	++ (which value is greater than 3)	- (specific OD450 or cpm of sera sample binding to peptide divided by the specific OD450 or cpm of NHS sample binding to peptide, which value is less than 2)	- (specific OD450 or cpm of sera sample binding to peptide divided by the specific OD450 or cpm of NHS sample binding to peptide, which value is less than 2)	++ (which value is greater than 3)	++ (which value is greater than 3)	- (specific OD450 or cpm of sera sample binding to peptide divided by the specific OD450 or cpm of NHS sample binding to peptide, which value is less than 2)	+ (which value is between 2 to 3)	+ (which value is between 2 to 3)	Difference in binding of samples from transmission vs non-transmission group (Spearman rank-order correlation) ([3]; Example 3): significant statistical difference; Binding of maternal HIV+ serum to peptide (sera/NHS ratio) [3, 19]: - (specific OD450 or cpm of sera sample binding to peptide divided by the specific OD450 or cpm of NHS sample binding to peptide, which value is less than 2); Binding of maternal HIV+ serum to peptide (sera/NHS ratio) [3, 20]: + (which value is between 2 to 3); Binding of maternal HIV+ serum to peptide (sera/NHS ratio) [3, 21]: + (which value is between 2 to 3); Binding of maternal HIV+ serum to peptide (sera/NHS ratio) [3, 22]: - (specific OD450 or cpm of sera sample binding to peptide divided by the specific OD450 or cpm of NHS sample binding to peptide, which value is less than 2); Binding of maternal HIV+ serum to peptide (sera/NHS ratio) [3, 23]: - (specific OD450 or cpm of sera sample binding to peptide divided by the specific OD450 or cpm of NHS sample binding to peptide, which value is less than 2); Percent of the maternal serum samples that bound to the peptide ([3]; all 20 samples): 70%; Correlation of peptide recognition with lack of vertical transmission [3]: correlated with non-transmission status; Correlation of peptide recognition with lack of vertical transmission ([3]; listed as SEQ ID NO: 6): clearly correlated to non-transmission status
56: gp41 peptide, amino acids 747-767, HIV strain IIIB, SEQ ID NO: 156 (RLVNGSLALIWDDLRSLCLFS) [Peptide 56]	0	0%	0	0%	recognized by the transmission group	–	–	–	–	–	–	–	–	–	–	–	–	–	–	–	Percent of both groups that bound to the peptide ([2]; transmission and non-transmission groups): more than 50%
THACVPTDPNPQEVV [Peptide 95]	–	–	–	–	Differences in binding between the transmission and non-transmission groups are noted	+ (which value is between 2 to 3)	- (specific OD450 or cpm of sera sample binding to peptide divided by the specific OD450 or cpm of NHS sample binding to peptide, which value is less than 2)	- (specific OD450 or cpm of sera sample binding to peptide divided by the specific OD450 or cpm of NHS sample binding to peptide, which value is less than 2)	- (specific OD450 or cpm of sera sample binding to peptide divided by the specific OD450 or cpm of NHS sample binding to peptide, which value is less than 2)	- (specific OD450 or cpm of sera sample binding to peptide divided by the specific OD450 or cpm of NHS sample binding to peptide, which value is less than 2)	- (specific OD450 or cpm of sera sample binding to peptide divided by the specific OD450 or cpm of NHS sample binding to peptide, which value is less than 2)	- (specific OD450 or cpm of sera sample binding to peptide divided by the specific OD450 or cpm of NHS sample binding to peptide, which value is less than 2)	- (specific OD450 or cpm of sera sample binding to peptide divided by the specific OD450 or cpm of NHS sample binding to peptide, which value is less than 2)	- (specific OD450 or cpm of sera sample binding to peptide divided by the specific OD450 or cpm of NHS sample binding to peptide, which value is less than 2)	- (specific OD450 or cpm of sera sample binding to peptide divided by the specific OD450 or cpm of NHS sample binding to peptide, which value is less than 2)	+ (which value is between 2 to 3)	- (specific OD450 or cpm of sera sample binding to peptide divided by the specific OD450 or cpm of NHS sample binding to peptide, which value is less than 2)	- (specific OD450 or cpm of sera sample binding to peptide divided by the specific OD450 or cpm of NHS sample binding to peptide, which value is less than 2)	++ (which value is greater than 3)	- (specific OD450 or cpm of sera sample binding to peptide divided by the specific OD450 or cpm of NHS sample binding to peptide, which value is less than 2)	Number of maternal sera binding to peptide ([3]; 20 maternal sera): three; Binding of maternal sera to peptide (in words) ([3]; Example 3): Several maternal serum samples had reactivity; Binding of maternal HIV+ serum to peptide (sera/NHS ratio) [3, 19]: - (specific OD450 or cpm of sera sample binding to peptide divided by the specific OD450 or cpm of NHS sample binding to peptide, which value is less than 2); Binding of maternal HIV+ serum to peptide (sera/NHS ratio) [3, 20]: - (specific OD450 or cpm of sera sample binding to peptide divided by the specific OD450 or cpm of NHS sample binding to peptide, which value is less than 2); Binding of maternal HIV+ serum to peptide (sera/NHS ratio) [3, 21]: - (specific OD450 or cpm of sera sample binding to peptide divided by the specific OD450 or cpm of NHS sample binding to peptide, which value is less than 2); Binding of maternal HIV+ serum to peptide (sera/NHS ratio) [3, 22]: - (specific OD450 or cpm of sera sample binding to peptide divided by the specific OD450 or cpm of NHS sample binding to peptide, which value is less than 2); Binding of maternal HIV+ serum to peptide (sera/NHS ratio) [3, 23]: - (specific OD450 or cpm of sera sample binding to peptide divided by the specific OD450 or cpm of NHS sample binding to peptide, which value is less than 2); Number of binding maternal sera from the transmission group ([3]; vertical transmission group (7 sera)): one
